Earlier results in PubChem BioAssay AID1259409 (Chemical Carcinogenesis Research Information System (CCRIS), 2018).

Test system: rodent chemically induced tumor inhibition, incidence and multiplicity
Assay: CCRIS tumor inhibitor studies
Settings: Route [Inhibitor]: ORAL

SMILES: Cc1c(C)c2c(c(C)c1O)CC[C@@](C)(CCC[C@H](C)CCC[C@H](C)CCCC(C)C)O2
- outcome (Carcinogen: N-BIS(2-HYDROXYPROPYL)NITROSAMINE, 53609-64-6, Dose [Inhibitor]: 0, 1% IN DIET FOR 30 WK BEGINNING POST CARCINOGEN TREATMENT (STUDY DURATION: 32 WK), Species: RAT, Strain/Sex: F344/MALE, Target Tissue: Type of Lesion: LUNG: ADENOMA, Dose [Carcinogen]: 0.1% IN DRINKING WATER FOR 2 WK, Promoter: NONE USED): 100%, 100%, 0, not significant
- tumour outcome (control, treated, inhibition, significance) (Carcinogen: N-BIS(2-HYDROXYPROPYL)NITROSAMINE, 53609-64-6, Dose [Inhibitor]: 0, 1% IN DIET FOR 30 WK BEGINNING POST CARCINOGEN TREATMENT (STUDY DURATION: 32 WK), Species: RAT, Strain/Sex: F344/MALE, Target Tissue: Type of Lesion: THYROID: ADENOMA, Dose [Carcinogen]: 0.1% IN DRINKING WATER FOR 2 WK, Promoter: NONE USED): 5%, 10%, -100%, not calculated
- tumour outcome (control, treated, inhibition, significance) (Carcinogen: N-BIS(2-HYDROXYPROPYL)NITROSAMINE, 53609-64-6, Dose [Inhibitor]: 0, 1% IN DIET FOR 30 WK BEGINNING POST CARCINOGEN TREATMENT (STUDY DURATION: 32 WK), Species: RAT, Strain/Sex: F344/MALE, Target Tissue: Type of Lesion: THYROID: CARCINOMA, Dose [Carcinogen]: 0.1% IN DRINKING WATER FOR 2 WK, Promoter: NONE USED): 20%, 10%, 50%, not calculated
- tumour outcome (control, treated, inhibition, significance) (Carcinogen: N-BIS(2-HYDROXYPROPYL)NITROSAMINE, 53609-64-6, Dose [Inhibitor]: 0, 1% IN DIET FOR 30 WK BEGINNING POST CARCINOGEN TREATMENT (STUDY DURATION: 32 WK, Species: RAT, Strain/Sex: F344/MALE, Target Tissue: Type of Lesion: LUNG: CARCINOMA, Dose [Carcinogen]: 0.1% IN DRINKING WATER FOR 2 WK, Promoter: NONE USED): 45%, 10%, 78%, p<0.05
- tumour outcome (control, treated, inhibition, significance) (Carcinogen: N-METHYL-N'-NITRO-N-NITROSOGUANIDINE, 70-25-7, N-ETHYL-N-HYDROXYETHYLNITROSAMINE, 13147-25-6, N-METHYLBENZYLNITROSAM, Carcinogen: N-METHYL-N'-NITRO-N-NITROSOGUANIDINE, 70-25-7, N-ETHYL-N-HYDROXYETHYLNITROSAMINE, 13147-25-6, N-METHYLBENZYLNITROSAM, Dose [Inhibitor]: 0, 1% IN DIET FOR 36 WK (STUDY DURATION: 36 WK), Species: RAT, Strain/Sex: F344/MALE, Target Tissue: Type of Lesion: KIDNEY: RENAL CELL TUMOR, Dose [Carcinogen]: 100 MG/KG BW MNNG ONCE, 750 MG/KG BW EHEN ONCE, 0.5 MG/KG BW MBN TWICE, 40 MG/KG BW DMH 4 TIMES, 0.05% DBN IN DRINKING W, Promoter: NONE USED): 8/18 (44%), 5/18 (28%), 36%, not calculated
- tumour outcome (control, treated, inhibition, significance) (Carcinogen: N-METHYL-N-NITROSOUREA, 684-93-5, Dose [Inhibitor]: 0, 3.349 UMOL/G IN DIET FOR DURATION OF STUDY (STUDY DURATION: 19 WK), Species: RAT, Strain/Sex: SPRAGUE-DAWLEY/FEMALE, Target Tissue: Type of Lesion: MAMMARY GLAND: TUMOR, Dose [Carcinogen]: 30 MG/KG IN ACIDIFIED SALINE ONCE, Promoter: NONE USED): 60%, 50%, 17%, not significant
- tumour outcome (control, treated, inhibition, significance) (Carcinogen: N-METHYLBENZYLNITROSAMINE, 937-40-6, Dose [Inhibitor]: 30, 142 IU IN BASAL DIET BEGINNING 1 WK POST CARCINOGEN TREATMENT (STUDY DURATION: 26 WK), Species: MOUSE, Strain/Sex: C57BL/FEMALE, Target Tissue: Type of Lesion: ESOPHAGUS: TUMORS, Dose [Carcinogen]: 0.2 MG/KG BW IN CORN OIL 3/WK FOR 3 WK, Promoter: NONE USED): 6/15 (40%), 3/15 (20%), 50%, p<0.05
- tumour outcome (control, treated, inhibition, significance) (Carcinogen: N-METHYLBENZYLNITROSAMINE, 937-40-6, Dose [Inhibitor]: 30, 142 IU IN BASAL DIET BEGINNING 1 WK POST CARCINOGEN TREATMENT TO MICE INFECTED WITH LP-BM5 MURINE RETROVIRUS (STUDY, Species: MOUSE, Strain/Sex: C57BL/FEMALE, Target Tissue: Type of Lesion: ESOPHAGUS: TUMORS, Dose [Carcinogen]: 0.2 MG/KG BW IN CORN OIL 3/WK FOR 3 WK, Promoter: NONE USED): 12/15 (80%), 11/16 (69%), 14%, not significant
- tumour outcome (control, treated, inhibition, significance) (Carcinogen: N-NITROSOMETHYLBENZYLAMINE, 937-40-6, Dose [Inhibitor]: 20, 142 MG/KG DIET BEGINNING POST CARCINOGEN TREATMENT AND CONTINUING FOR DURATION OF STUDY (STUDY DURATION: 23 WK), Species: MOUSE, Strain/Sex: C57BL/FEMALE, Target Tissue: Type of Lesion: ESOPHAGUS: TUMOR, Dose [Carcinogen]: 0.2 MG/KG BW IN CORN OIL 3/WK FOR 3 WK, Promoter: ETHANOL, 64-17-5): 10/17 (59%), 6/16 (38%), 36%, p<0.05
- tumour outcome (control, treated, inhibition, significance) (Carcinogen: NONE USED, Dose [Inhibitor]: 25.5, 550.9 MG/KG IN DIET FOR 40 WK (STUDY DURATION: 40 WK), Species: MOUSE, Strain/Sex: STRAIN-A/MALE, Target Tissue: Type of Lesion: LUNG: TUMOR, Promoter: NONE USED): 8/15 (53%), 4/15 (27%), 49%, not significant
- tumour outcome (control, treated, inhibition, significance) (Carcinogen: URETHANE, 51-79-6, Dose [Inhibitor]: 25, 500 MG/KG IN DIET FOR THE DURATION OF STUDY (STUDY DURATION: 26 WK), Species: MOUSE, Strain/Sex: DDY/MALE, Target Tissue: Type of Lesion: LUNG: TUMOR, Dose [Carcinogen]: 750 MG/KG BW ONCE, Promoter: NONE USED): 100%, 80%, 20%, not calculated
